One test has as its system AMARE. Put plainly: Pre-emergence herbicidal action against AMARE. Type of test: in vivo, Amaranthus retroflexus. Particulars: Amaranthus retroflexus, 504 h, 100% = plants have died, 0% = like control plants; for pest or weed control at 80 g/ha / pest or weed control at 20 g/ha: scored visually after 3 weeks vs untreated controls; for pest or weed control at 320 g/ha: scored visually after 3 weeks. A digest of the protocol: (§1)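 Pre-emergence soil-surface spray of formulated compound (WP or EC; 600 to 800 l/ha; 0.2% wetting agent) over seeds sown in sandy loam. After 3 weeks under greenhouse conditions, damage is estimated visually in percent against untreated plants.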

The test system of the next test is AVEFA. Description: Pre-emergence herbicidal action against AVEFA. Type of test: in vivo, Avena fatua. Particulars: Avena fatua, 504 h, pre-emergence; for pest or weed control at 320 g/ha: scored visually after 3 weeks, 100% = plants have died, 0% = like control plants. In a few lines: as §1
Test [1] relates to DIGSA. Put plainly: Pre-emergence herbicidal action against DIGSA. Type of test: in vivo, Digitaria sanguinalis. Particulars: Digitaria sanguinalis, 504 h; for pest or weed control at 80 g/ha: dosage 80 g/ha; for pest or weed control at 320 g/ha: dosage 320 g/ha. In a few lines:
as §1

For the next test, the system named is ABUTH. Description: Post-emergence herbicidal action against ABUTH. Type of test: in vivo, Abutilon theophrasti. Particulars: Abutilon theophrasti, 504 h, visual assessment about 3 weeks after treatment vs untreated controls; for pest or weed control at 20 g/ha: dosage 20 g/ha; for pest or weed control at 80 g/ha: dosage 80 g/ha; for pest or weed control at 5 g/ha: dosage 5 g/ha. In a few lines: (§2)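 Greenhouse plants in sandy loam were sprayed at the one-leaf stage, 2 to 3 weeks after sowing, with WP or EC formulations as aqueous suspension or emulsion (600 to 800 l/ha water, 0.2% wetting agent). Visual damage was scored about 3 weeks later versus untreated controls, 0% = like control, 100% = dead.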

Another test deals with STEME. Put plainly: Post-emergence herbicidal action against STEME. Type of test: in vivo, Stellaria media. Particulars: Stellaria media, 504 h; for pest or weed control at 5 g/ha: dosage 5 g/ha. A digest of the protocol: as §2
Test [2] deals with DIGSA. Put plainly: Post-emergence herbicidal action against DIGSA. The format is in vivo, Digitaria sanguinalis. Particulars: Digitaria sanguinalis, 504 h. In a few lines:
as §2

For the next test, the system named is harmful plants. Description: Comparative experiments: herbicidal post-emergence action versus compounds known from D1 (WO 2012/028579 A1). The format is in vivo. Also noted: key to Herbicidal action against ALOMY / Herbicidal action against AVEFA / Herbicidal action against LOLRI / Herbicidal action against MATIN / Herbicidal action against HORMU / Herbicidal action against ECHCG / Herbicidal action against SETVI / Herbicidal action against ABUTH / Herbicidal action against STEME / Herbicidal action against VIOTR / Herbicidal action against AMARE: % herbicidal action: 100 = plants died, 0 = like untreated control. Particulars: 20 g a.i./ha. As to the method: Seeds of monocotyledonous and dicotyledonous weed and crop plants are laid out in sandy loam soil in wood-fiber pots, covered with soil and cultivated in a greenhouse under good growth conditions. 2 to 3 weeks after sowing, the test plants are treated at the one-leaf stage. The compounds of the invention, formulated in the form of wettable powders (WP) or as emulsion concentrates (EC), are then sprayed onto the green parts of the plants in the form of an aqueous suspension or emulsion at a water application rate equivalent to 600 to 800 l/ha, with addition of 0.2% wetting agent. After the test plants have been left to stand in the greenhouse under optimal growth conditions for about 3 weeks, the action of the preparations is assessed visually in comparison to untreated controls (herbicidal action in percent (%): 100% activity=the plants have died, 0% activity=like control plants). […] The tables below illustrate, in an illustrative manner, the post-emergence herbicidal action of the compounds of the invention, the herbicidal activity being stated in percent. In the experiments that follow, herbicidal action of numerous inventive compounds and the structurally closest compounds known from D1 (WO 2012/028579 A1) were compared under the above-specified conditions by the pre-emergence and post-emergence method. The example numbers given in the tables relate to the compounds disclosed in the respective documents.

The subject of another test is CYPES. Description: Pre-emergence herbicidal action against CYPES. Particulars: Cyperus esculentus, 504 h. The format is in vivo. The text has this: Seeds of monocotyledonous and dicotyledonous weed plants and crop plants are laid out in sandy loam soil in wood-fiber pots and covered with soil. The compounds of the invention, formulated in the form of wettable powders (WP) or as emulsion concentrates (EC), are then applied to the surface of the covering soil in the form of an aqueous suspension or emulsion at a water application rate equivalent to 600 to 800 l/ha, with addition of 0.2% wetting agent. After the treatment, the pots are placed in a greenhouse and kept under good growth conditions for the trial plants. The damage to the test plants is scored visually after a test period of 3 weeks by comparison with untreated controls (herbicidal activity in percent (%): 100% activity=the plants have died, 0% activity=like control plants). […] The tables below illustrate, in an illustrative manner, the post-emergence herbicidal action of the compounds of the invention, the herbicidal activity being stated in percent.

The subject of another test is PHBPU. Put plainly: Pre-emergence herbicidal action against PHBPU. Particulars: Ipomoea purpurea, 504 h; for pest or weed control at 320 g/ha: dosage 320 g/ha. The format is in vivo, Pharbitis purpurea. In a few lines:
as §1

Where [3] appears, read: scored visually after 3 weeks, 100% = plants have died, 0% = like control plants.

In general, pest or weed control refers to how far the test organism was held down.

In the case of `CNC(=O)c1c(C(F)F)ccc(C(=O)Nc2nnnn2C)c1Cl` [Example 1-147], the pest or weed control at 80 g/ha in the test on AMARE was determined as 100%; in the test with AVEFA, 100%; in the test with DIGSA [1], 100%; in the test with ABUTH it was 90%; in the test with STEME, 90%; in the test with DIGSA [2], 90%. Besides, the pest or weed control at 320 g/ha in the test with AMARE, in the test with AVEFA and with DIGSA [1] was 100% in each case. Also, the pest or weed control at 20 g/ha in the test on ABUTH stood at 90%; in the test with STEME, 80%; with DIGSA [2], 90%. Also, the “Herbicidal action against ALOMY” value with harmful plants amounted to 80. For the same compound, the “Herbicidal action against AVEFA” value in the test on harmful plants stood at 90. The “Herbicidal action against MATIN” value with harmful plants is listed as 100. Moreover, the “Herbicidal action against PHBPU” value in the test with harmful plants was 80. In the test with harmful plants (POLCO), the “Herbicidal action against POLCO” value is 90. In the test on harmful plants (VIOTR), the “Herbicidal action against VIOTR” value was 70.
In the case of `CCn1nnnc1NC(=O)c1ccc(C(F)F)c(C(=O)NC)c1Cl` [Example 2-147], in the test with AMARE, the pest or weed control at 80 g/ha stood at 100% and the pest or weed control at 320 g/ha came out at 100%. In the test on AVEFA, the pest or weed control at 80 g/ha is 100% and the pest or weed control at 320 g/ha is 100%. In the test with DIGSA [1], the pest or weed control at 80 g/ha is 100% and the pest or weed control at 320 g/ha came to 100%. In the test with ABUTH, the pest or weed control at 20 g/ha came to 90% and the pest or weed control at 80 g/ha was found to be 90%. Moreover, in the test with STEME, the pest or weed control at 20 g/ha was 80% and the pest or weed control at 80 g/ha was 90%. In the test on DIGSA [2], the pest or weed control at 20 g/ha was 90% and the pest or weed control at 80 g/ha turned out to be 90%. In the test on harmful plants, the “Herbicidal action against ALOMY” value was 80, the “Herbicidal action against AVEFA” value is given as 90, the “Herbicidal action against MATIN” value stood at 100 and the “Herbicidal action against PHBPU” value worked out at 70. The “Herbicidal action against HORMU” value in the test on harmful plants (HORMU) came to 80. Also, the “Herbicidal action against LOLRI” value with harmful plants (LOLRI) amounted to 70.
For the compound `CCn1nnnc1NC(=O)c1ccc(C(F)(F)F)c(C(N)=O)c1Cl` [Example 2-338], the pest or weed control at 20 g/ha stood at 90% with AMARE, 100% in the test with ABUTH and 90% in the test with STEME. Also, the pest or weed control at 80 g/ha in the test on AMARE was determined as 100%; in the test with AVEFA, 90%; in the test on CYPES (setting [3]), 90%; in the test with ABUTH, 100%; with STEME it was 100%. Further, the pest or weed control at 320 g/ha in the test with AMARE stood at 100%; in the test with AVEFA, 100%; in the test with CYPES, 100%; with PHBPU, 80%. Moreover, the pest or weed control at 5 g/ha in the test on ABUTH was found to be 100%.
As to `CCCn1nnnc1NC(=O)c1ccc(C(F)(F)F)c(C(=O)NC)c1Cl` [Example 3-129], the pest or weed control at 20 g/ha in the test on AMARE is 100%; in the test on PHBPU (dosage 20 g/ha), 80%; in the test with ABUTH, 100%; with STEME it was 100%. Besides, the pest or weed control at 80 g/ha with AMARE amounted to 100%; with AVEFA, 100%; in the test with CYPES (setting [3]) it was 100%; in the test with PHBPU (dosage 80 g/ha) it was 90%; in the test with ABUTH it was 100%; in the test on STEME, 100%. For the same compound, the pest or weed control at 320 g/ha in the test on AMARE, in the test on AVEFA, in the test with CYPES and in the test on PHBPU was 100% in each case. Moreover, the pest or weed control at 5 g/ha in the test on ABUTH and with STEME was 100% in each case.
`CCCn1nnnc1NC(=O)c1ccc(C(F)(F)F)c(C(N)=O)c1Cl` [Example 3-338]: the pest or weed control at 20 g/ha turned out to be 80% in the test on AMARE, 90% in the test with ABUTH and 100% with STEME. In addition, the pest or weed control at 80 g/ha in the test with AMARE was 100%; in the test with AVEFA it was 90%; in the test on CYPES (setting [3]) it was 90%; in the test with ABUTH, 100%; with STEME, 100%. The pest or weed control at 320 g/ha was determined as 100% in the test on AMARE, 100% in the test with AVEFA, 90% in the test on CYPES and 100% with PHBPU. Moreover, the pest or weed control at 5 g/ha with ABUTH was 90%; in the test with STEME it was 80%.
As for `CNC(=O)c1c(C(F)(F)F)ccc(C(=O)Nc2nnc(C)o2)c1Cl` [Example 6-116], the pest or weed control at 20 g/ha in the test with AMARE was 100%; with CYPES (20 g/ha, scored visually after 3 weeks, 100% = plants have died, 0% = like control plants) it was 100%; with ABUTH, 100%; with STEME, 100%. In addition, the pest or weed control at 80 g/ha in the test with AMARE, with AVEFA, in the test with CYPES (setting [3]), with ABUTH and in the test on STEME was 100% each time. Also, the pest or weed control at 320 g/ha with AMARE turned out to be 100%; in the test on AVEFA, 100%; in the test with CYPES, 100%; in the test with PHBPU, 80%. In addition, the pest or weed control at 5 g/ha with ABUTH and in the test with STEME was 90% in each case.

These data come from patent US12655116B2, “Substituted isophthalic acid diamides” (Bayer Aktiengesellschaft, priority 2020, dated 2026).
